Bounds are passed on as bounds.

The subject of the assay is WT Mtb Erdman strain. In words: Microplate Alamar Blue Assay (MABA), Mtb growth inhibition. The format is cell-based, Mycobacterium tuberculosis. Particulars: Mycobacterium tuberculosis, ERDMAN, 168 h, Middlebrook 7H9 media, 7 days at 37° C. in 5% CO2.
`Cc1cc2c(NCCCc3cc(F)cc(C(F)(F)F)c3)nc(C(F)(F)F)nc2s1` [Example 240, N-(3-(3-fluoro-5-(trifluoromethyl)phenyl)propyl)-6-methyl-2-(trifluoromethyl) thieno[2,3-d] pyrimidin-4-amine] displayed an IC50 of 2900 nM.
As for `Cc1cc2c(NCCCc3ccc(-c4ccc(OC(F)(F)F)cc4)cc3)nc(-n3ccnc3)nc2s1` [Example 451, 2-(1H-imidazol-1-yl)-6-methyl-N-(3-(4′-(trifluoromethoxy)-[1,1′-biphenyl]-4-yl)propyl)thieno[2,3-d]pyrimidin-4-amine], the figure is 1800 nM.
Turning to `Cc1cc2c(NCCCc3ccc(C#N)cc3)nc(C(F)(F)F)nc2s1` [Example 238, 4-(3-((6-methyl-2-(trifluoromethyl)thieno[2,3-d]pyrimidin-4-yl)amino)propyl) benzonitrile], the IC50 is greater than 10000 nM.
As for `Cc1cc2c(NCCCc3ccccc3)nc(-c3cn[nH]c3)nc2s1` [Example 130, 6-methyl-N-(3-phenylpropyl)-2-(1H-pyrazol-4-yl)thieno[2,3-d]pyrimidin-4-amine], the figure is 2200 nM; as for `CCc1nc(NCCCn2ccc3ccccc32)c2cc(C)sc2n1` [Example 196, N-(3-(1H-indol-1-yl)propyl)-2-ethyl-6-methylthieno[2,3-d]pyrimidin-4-amine], 450 nM; as for `CCc1nc(NCCCc2ccc3ccccc3c2)c2cc(C)sc2n1` [Example 258, 2-ethyl-6-methyl-N-(3-(naphthalen-2-yl)propyl)thieno[2,3-d]pyrimidin-4-amine], 190 nM.
`CCc1nc(NCCCc2cn(-c3ccccc3)nn2)c2cc(C)sc2n1` [Example 563, 2-ethyl-6-methyl-N-(3-(1-phenyl-1H-1,2,3-triazol-4-yl)propyl)thieno[2,3-d]pyrimidin-4-amine] gave an IC50 of 4700 nM.
As for `CCc1nc(NCCCc2ccc3c(c2)CCO3)c2cc(C)sc2n1` [Example 256, N-(3-(2,3-dihydrobenzofuran-5-yl)propyl)-2-ethyl-6-methylthieno[2,3-d]pyrimidin-4-amine], the figure is 290 nM; as for `Cc1cc2c(NCCCc3ccc(-c4cc(F)c(Cl)c(F)c4)cc3)nc(-c3ccoc3)nc2s1` [Example 331, N-(3-(4′-chloro-3′,5′-difluoro-[1,1′-biphenyl]-4-yl)propyl)-2-(furan-3-yl)-6-methylthieno[2,3-d]pyrimidin-4-amine], 30 nM.
The result for `CCc1nc(NCCCc2ccc(N=[N+]=[N-])cc2)c2cc(C)sc2n1` [Example 591, N-(3-(4-azidophenyl)propyl)-2-ethyl-6-methylthieno[2,3-d]pyrimidin-4-amine] reads greater than 10000 nM.
In turn, `CCc1nc(NCCCc2ccc(-c3ccc(F)c(F)c3)cc2)c2cc(C)sc2n1` [Example 276, N-(3-(3′,4′-difluoro-[1,1′-biphenyl]-4-yl)propyl)-2-ethyl-6-methylthieno[2,3-d]pyrimidin-4-amine] came in with an IC50 of 930 nM.
`CCc1nc(NC[C@@H]2C[C@H]2c2ccccc2)c2cc(C)sc2n1` (racemic) [Example 84, 2-ethyl-6-methyl-N-(((1S,2S)-2-phenylcyclopropyl)methyl)thieno[2,3-d]pyrimidin-4-amine] showed an IC50 of 7700 nM. Compared with the last compound, the IC50 is about 8.3-fold higher.
As for `Cc1cc2c(N[C@@H]3C[C@H]3c3ccc(F)c(F)c3)nc(-c3ccncn3)nc2s1` [Example 38, N-((1R,2S)-2-(3,4-difluorophenyl)cyclopropyl)-6-methyl-2-(pyrimidin-4-yl)thieno[2,3-d]pyrimidin-4-amine], the figure is 2000 nM; as for `Cc1cc2c(NCCCc3ccncc3)nc(C(F)(F)F)nc2s1` [Example 157, 6-methyl-N-(3-(pyridin-4-yl)propyl)-2-(trifluoromethyl) thieno[2,3-d] pyrimidin-4-amine], greater than 10000 nM; as for `CNc1nc(NCCCc2ccccc2)c2cc(C)sc2n1` [Example 521, N2,6-dimethyl-N4-(3-phenylpropyl)thieno[2,3-d]pyrimidine-2,4-diamine], 250 nM.
As for `Cc1cc2c(NCCCc3ccc(-c4cnc(F)c(C)c4)cc3)nc(-c3ccoc3)nc2s1` [Example 344, N-(3-[4-(6-fluoro-5-methylpyridin-3-yl)phenyl]propyl)-2-(furan-3-yl)-6-methylthieno[2,3-d]pyrimidin-4-amine], the figure is 74 nM; as for `Cc1cc2c(NCCCc3cccc(C#N)c3)nc(C(F)(F)F)nc2s1` [Example 243, 3-(3-((6-methyl-2-(trifluoromethyl)thieno[2,3-d]pyrimidin-4-yl)amino)propyl) benzonitrile], greater than 8000 nM; as for `CCc1nc(NCCc2ccc(OC)cc2)c2cc(C)sc2n1` [Example 15, 2-ethyl-N-(4-methoxyphenethyl)-6-methylthieno[2,3-d]pyrimidin-4-amine], 2100 nM.
As for `CCc1nc(NCCCc2cc3ccccc3s2)c2cc(C)sc2n1` [Example 261, N-(3-(benzo[b]thiophen-2-yl)propyl)-2-ethyl-6-methylthieno[2,3-d]pyrimidin-4-amine], the figure is 280 nM; as for `CCc1nc(NCCCc2ccccc2F)c2cc(C)sc2n1` [Example 200, 2-ethyl-N-(3-(2-fluorophenyl)propyl)-6-methylthieno[2,3-d]pyrimidin-4-amine], 650 nM; as for `Cc1cc2c(N[C@@H]3C[C@H]3c3ccc(F)c(F)c3)nc(C(N)=O)nc2s1` [Example 107, 4-(((1R,2S)-2-(3,4-difluorophenyl)cyclopropyl)amino)-6-methylthieno[2,3-d]pyrimidine-2-carboxamide], greater than 6400 nM.
`COc1ccc(-c2ccc(CCCNc3nc(C(F)(F)F)nc4sc(C)cc34)cc2)cc1` [Example 288, N-(3-(4′-methoxy-[1,1′-biphenyl]-4-yl)propyl)-6-methyl-2-(trifluoromethyl) thieno[2,3-d]pyrimidin-4-amine] returned an IC50 of 310 nM. This counts as sub-micromolar.
As for `Cc1cc2c(NCCCc3ccc(-c4ccc(OC(F)(F)F)cn4)cc3)nc(-c3ccon3)nc2s1` [Example 459, 2-(isoxazol-3-yl)-6-methyl-N-(3-(4-(5-(trifluoromethoxy)pyridin-2-yl)phenyl)propyl)thieno[2,3-d]pyrimidin-4-amine], the figure is 43 nM; as for `Cc1cc2c(NCCCc3ccc(-c4ccc(C#N)cc4)cc3)nc(-c3ccoc3)nc2s1` [Example 427, 4′-(3-((2-(furan-3-yl)-6-methylthieno[2,3-d]pyrimidin-4-yl)amino)propyl)-[1,1′-biphenyl]-4-carbonitrile], 16 nM.
Turning to `Cc1cc2c(NCCCc3ccc(-c4ccc(OC(F)(F)F)cc4)cc3)nc(-c3ccc(F)cc3)nc2s1` [Example 295, 2-(4-fluorophenyl)-6-methyl-N-(3-(4′-(trifluoromethoxy)-[1,1′-biphenyl]-4-yl)propyl)thieno [2,3-d]pyrimidin-4-amine], inhibition was half-maximal at 400 nM (IC50).
As for `Clc1nc(NCCCc2ccccc2)c2ccsc2n1` [Example 218, 2-chloro-N-(3-phenylpropyl)thieno [2,3-d]pyrimidin-4-amine], the figure is 6400 nM; as for `Cc1cc2c(NCCCc3ccccc3)nc(Cl)nc2s1` [Example 224, 2-chloro-6-methyl-N-(3-phenylpropyl)thieno [2,3-d]pyrimidin-4-amine], 1600 nM; as for `Cc1cc2c(N[C@@H]3C[C@H]3c3ccc(F)c(F)c3)nc(NC3COC3)nc2s1` [Example 526, N4-((1R,2S)-2-(3,4-difluorophenyl)cyclopropyl)-6-methyl-N2-(oxetan-3-yl)thieno[2,3-d]pyrimidine-2,4-diamine], greater than 10000 nM.
As for `Cc1cc2c(NCCCc3ccccc3)nc(-c3cnccn3)nc2s1` [Example 105, 6-methyl-N-(3-phenylpropyl)-2-(pyrazin-2-yl)thieno[2,3-d]pyrimidin-4-amine], the figure is 2000 nM; as for `Cc1cc2c(NCCCc3ccc(-c4ccc(OC(F)(F)F)cc4)cc3)nc(N)nc2s1` [Example 537, 6-methyl-N4-(3-(4′-(trifluoromethoxy)-[1,1′-biphenyl]-4-yl)propyl)thieno[2,3-d]pyrimidine-2,4-diamine], 130 nM; as for `Cc1cc2c(NCCCc3ccccc3)nc(N3CCN(C)CC3)nc2s1` [Example 508, 6-methyl-2-(4-methylpiperazin-1-yl)-N-(3-phenylpropyl)thieno[2,3-d]pyrimidin-4-amine], greater than 10000 nM.
In the case of `Cc1cc2c(NCCCc3ccc(-c4ccc(Cl)cc4)cc3)nc(Cl)nc2s1` [Example 435, 2-chloro-N-(3-(4′-chloro-[1,1′-biphenyl]-4-yl)propyl)-6-methylthieno[2,3-d]pyrimidin-4-amine], the IC50 worked out at 30 nM.
The result for `CCc1nc(NCCCc2ccc(-c3cccc(OC(F)(F)F)c3)cc2)c2cc(C)sc2n1` [Example 280] reads 140 nM; that for `Cc1cc2c(NCCCc3ccccc3)nc(C3(N)CC3)nc2s1` [Example 58, 2-(1-aminocyclopropyl)-6-methyl-N-(3-phenylpropyl)thieno [2,3-d]pyrimidin-4-amine], 5000 nM.
On to `Cc1cc2c(NCCCc3ccc(O)cc3)nc(C(F)(F)F)nc2s1` [Example 184, 4-(3-((6-methyl-2-(trifluoromethyl)thieno[2,3-d]pyrimidin-4-yl)amino)propyl) phenol], for which the IC50 is greater than 10000 nM.
`Cc1cc2c(NCCCc3ccc(-c4ccc(OC(F)(F)F)cc4)cc3)nc(C(C)C)nc2s1` [Example 455, 2-isopropyl-6-methyl-N-(3-(4′-(trifluoromethoxy)-[1,1′-biphenyl]-4-yl)propyl)thieno[2,3-d]pyrimidin-4-amine] showed an IC50 of 56 nM.
`Cc1cc2c(NCCCc3ccc(-c4ccc(OC(F)(F)F)cc4)cc3)nc(-c3ccn(C)c3)nc2s1` [Example 441, 6-methyl-2-(1-methyl-1H-pyrrol-3-yl)-N-(3-(4′-(trifluoromethoxy)-[1,1′-biphenyl]-4-yl)propyl)thieno[2,3-d]pyrimidin-4-amine] registered an IC50 of 49 nM. This IC50 and that of the compound before are within 1.5-fold of each other.
The compound `Cc1cc(Cc2nc(NCCCc3ccccc3)c3cc(C)sc3n2)no1` [Example 140, 6-methyl-2-((5-methylisoxazol-3-yl)methyl)-N-(3-phenylpropyl)thieno [2,3-d]pyrimidin-4-amine] had a half-maximal inhibitory concentration (IC50) greater than 10000 nM.

Usually IC50 stands for the point on the concentration scale where inhibition reaches its midpoint. The low end stands for inhibition by little substance, the high end for a need for much substance.

The values above are taken from patent US20240279236A1, “COMPOUNDS AND METHODS OF TREATING TUBERCULOSIS” (Fimbrion Therapeutics, Inc., priority 2021, published 2024).
